Experiments:
human UCB-MSCs = experiment: Tuj1 immunochemical assay with CtBP inhibitors; type: cell-based
Procedure: To determine CtBP1-mediated ciNSC5 differentiation by YJ102 in human UCB-MSCs, a CTBP1 mechanism by treatment with NSC95397 or 4-methylthio-2-oxobutanoate (MTOB) was analyzed by immunochemical assay. Specifically, UCB-MSCs were dispensed at 2.1×10^4 cells/well in a 12-well plate containing an 18 mm cover glass (circular) (a DMSO control group was dispensed at 3.5×10^3 cells/well). […] The culture medium was removed, washed with PBS, and fixed with 4% paraformaldehyde at room temperature for 10 minutes. After washed three times with PBS, the cells were permeabilized with PBS-T containing 0.5% Triton X-100 for 10 minutes, washed with PBS-T three times for 10 minutes each, and then blocked with a blocking solution (PBS-T containing 5% BSA and 5% goat serum) for 1 hour. Thereafter, the cells were treated with anti-Tuj1 antibody (Cat. 801201, BioLegend) diluted 1/5000 in a blocking solution and incubated at 4° C. overnight. The next day, the cells were washed 10 times for 10 minutes each with PBS-T, and then treated with anti-mouse IgG-cy3 (Cat. 111-165-003, Jackson ImmunoResearch) diluted 1/2000 in a blocking solution, and incubated for 1 hour in dark conditions. Next, the cells were washed 10 times for 10 minutes each with PBS-T, mounted with a mounting solution containing DAPI, and then observed with a confocal microscope.

CtBP1 [1] = target: T1, CtBP1 (Homo sapiens, UniProt Q13363); experiment: Immunoprecipitation, CtBP1 oligomerization in UCB-MSCs; type: cell-based; design: expressed in transfected cells; host or cells: human UCB-MSC; details: MTOB 300 μM
Procedure: To determine the effect of YJ102 on the regulation of oligomerization of C-terminal Binding Proteins (CtBPs) in human UCB-MSCs, immunoprecipitation analysis was performed. Specifically, UCB-MSCs were dispensed at 4×10^5 cells/ml in a 60 mm culture dish, and the next day, FLAG-CtBP1, HA-CtBP1, FLAG-CtBP2, and HA-CtBP1 were transfected into cells using 4 μl jetPRIME. Thereafter, the cells were treated with YJ102 (stock 30 mM in DMSO) and MTOB (stock 300 mM in DMSO) at 20 μM and 300 μM, respectively (Table 1). After 48 hours of transfection, proteins were extracted in the same manner as in Example 1-1. Protein G agarose slurry was washed with PBS and blocked with 1 ml of 1% BSA, washed with PBS, and added with 1 μg of anti-HA antibody diluted with 1.5 ml of PBS and incubated at 4° C. for 2 hours. Thereafter, the cells were centrifuged at 3,000×g for 2 minutes to remove the supernatant, washed with an IP150 buffer two times, added with 1 μg of the protein extracted above, and incubated at 4° C. overnight. After incubation, the cells were centrifuged at 3,000×g for 2 minutes to remove the supernatant, washed with PBS three times, added with 50 μl of 1 mg/ml HA peptide diluted with PBS, and incubated at room temperature for 10 minutes. […]

CtBP1 [2] = target: T1, CtBP1; experiment: DARTS assay, CtBP1; type: binding; design: expressed in transfected cells; host or cells: human UCB-MSC (Kang Stem Cell), lysate; details: for overexpressed CtBP1 (flag-CtBP1) protection from degradation by pronase (DARTS): FLAG-CtBP1 transfected UCB-MSC lysate, YJ101 (20 or M), YJ102 (20 or 30 μM), YJ103 (20 or 40 μM); for binding to CtBP1: human UCB-MSC
Procedure: To identify proteins binding to compounds of the present invention, YJ101 (Chemical Formula 1), YJ102 (Chemical Formula 2), and YJ103 (Chemical Formula 3), in human umbilical cord blood-derived mesenchymal stem cells (UCB-MSCs), DART assay was performed. Specifically, UCB-MSCs (Kang Stem Cell, Passage #6) were dispensed into a 100 mm culture dish and incubated in a KSB-3 medium (Cat. K3901, Kang Stem Cell) containing 10% FBS (Cat. 16000044), and then collected and washed with PBS. Thereafter, the cells were added with an IP50 lysis buffer [50 mM Tris-HCl (pH 7.4), 150 mM NaCl, 2 mM MgCl2, and 0.1% NP40], sonicated, and centrifuged at 13,000×g for 10 minutes at 4° C. to obtain the supernatant. The supernatant was added with 1/10 volume of 10×TNC buffer [500 mM Tris-HCl (pH 8.0), 500 mM NaCl, and 100 mM CaCl2)], and protein concentration was measured using a Bradford method. Thereafter, 9 μl of a cell lysate and 1 μl of YJ101 (20 or M), YJ102 (20 or 30 μM), or YJ103 (20 or 40 μM) were mixed in a microcentrifuge tube and incubated at room temperature for 1 hour. A control group was treated with 1 μl of DMSO. After incubation, 1 μl (1 mg/ml) of Pronase (Cat. 10 165 921 001, Roche) diluted to 1 mg/ml using a 1×TNC buffer was added to the microcentrifuge tube and incubated at 37° C. for 15 minutes. After incubation, ⅕ volume of a 5×SDS-PAGE loading buffer was added, heated at 100° C. for 5 minutes, and then SDS-PAGE and Coomassie blue staining were performed. In addition, UCB-MSCs were dispensed at 4×10^5 cells/ml in a 60 mm culture dish, and after 24 hours, 4 μg of FLAG-CtBP1 or FLAG-CtBP2 DNA was transfected using 4 μl of jetPRIME. After 48 hours, the cells were collected, and proteins were extracted and quantified using the same method as above. DARTS assay was performed with the cell lysate of CtBP1 and Y102 labeled with FLAG, and Western blot assay was performed with a flag antibody (Cat. F3165, Sigma).

UCB-MSCs [3] = experiment: CellTiter-Glo proliferation assay; type: cell-based, human; details: 10, 20, or 40 μM; 3 or 5 days
Procedure: Thereafter, 100 μl of a CellTiter-Glo reagent prepared by mixing a CellTiter-Glo Buffer with a CellTiter-Glo substrate was added to each well of a 96-well plate, covered with a plate cover, and incubated at room temperature for 30 minutes.

BM-MSC = experiment: Tuj1 immunochemical assay, BM-MSC; type: cell-based, human; details: 10, 20 or 30 μM, 5 days
Procedure: (§1) To determine whether transdifferentiation into ciNSC5, neural progenitor cells, occurred similarly even in MSCs of different origins when human UCB-MSCs were treated with YJ101, YJ102, or YJ103 for 5 days, the expression of neuronal markers in differentiated ciNSC5 was confirmed by immunochemical assay using MSCs from human adipose-derived mesenchymal stem cells (AD-MSCs), human bone marrow-derived mesenchymal stem cells ([…]) and human umbilical cord blood-derived mesenchymal stem cells (UCB-MSCs; Promo Cells). Specifically, AD-MSC (StemPro™ Human Adipose-Derived Stem Cell, Gibco, Passage #6) was incubated in a MesenPRO RS™ medium, BM-MSC (ATCC, Passage #6) was incubated in a Mesenchymal Stem Cell Basal Medium for Adipose, Umbilical and Bone Marrow-derived MSC (Cat. PCS-500-030, ATCC) medium, and UCB-MSC (Promo Cell, Passage #6) was incubated in a CellCor™ CD MSC (Cat. YSP001, Xell Therapeutics) medium, and then dispensed at 2.1×10^4 cells/well in a 12-well plate with an 18 mm cover glass (circular) (DMSO control group was dispensed at 3.5×10^3 cells/well). […] The culture medium was removed, washed with PBS, and then fixed with 4% paraformaldehyde at room temperature for 10 minutes. After washed three times with PBS, the cells were permeabilized with PBS-T containing 0.5% Triton X-100 for 10 minutes, washed with PBS-T three times for 10 minutes each, and then blocked with a blocking solution (PBS-T containing 5% BSA and 5% goat serum) for 1 hour. Thereafter, the cells were treated with anti-Tuj1 antibody (Cat. 801201, BioLegend) diluted 1/5000 in a blocking solution and incubated at 4° C. overnight. The next day, the cells were washed 10 times for 10 minutes each with PBS-T, and then treated with anti-mouse IgG-cy3 diluted 1/2000 in a blocking solution, and incubated for 1 hour in dark conditions. Next, the cells were washed 10 times for 10 minutes each with PBS-T, mounted with a mounting solution containing DAPI, and then observed with a confocal microscope.

UCB-MSCs [4] = experiment: Tuj1 immunochemical assay, direct conversion of UCB-MSCs into ciNSC5; type: cell-based, human; details: 30 μM, 5 days; for expression of Tuj1: UCB-MSC
Procedure: Immunochemical assay was performed to confirm whether UCB-MSCs were transdifferentiated into ciNSC5, Tuj1-positive neural progenitor cells, by the compounds of the present invention, YJ101, YJ102, and YJ103. Specifically, UCB-MSCs were dispensed at 2.1×10^4 cells/well in a 12-well plate containing an 18 mm cover glass (a DMSO control group was dispensed at 3.5×10^3 cells/well). […] The culture medium was removed, washed with PBS, and then fixed with 4% paraformaldehyde at room temperature for 10 minutes. After washed three times with PBS, the cells were permeabilized with PBS-T containing 0.5% Triton X-100 for 10 minutes, washed with PBS-T three times for 10 minutes each, and then blocked with a blocking solution (PBS-T containing 5% BSA and 5% goat serum) for 1 hour. Thereafter, the cells were treated with anti-Tuj1 antibody (Cat. 801201, BioLegend) diluted 1/5000 in a blocking solution and incubated at 4° C. overnight. The next day, the cells were washed 10 times for 10 minutes each with PBS-T, and then treated with anti-mouse IgG-FITC diluted 1/500 in a blocking solution, and incubated for 1 hour in dark conditions. Next, the cells were washed 10 times for 10 minutes each with PBS-T, mounted with a mounting solution containing DAPI, and then observed with a confocal microscope.

UCB-MSC (Promo Cell) = experiment: Tuj1 immunochemical assay, UCB-MSC (Promo Cell); type: cell-based, human; details: 10, 20 or 30 μM, 5 days
Procedure: as §1

AD-MSC = experiment: Tuj1 immunochemical assay, AD-MSC; type: cell-based, human; details: 10, 20 or 30 μM, 5 days
Procedure: as §1

| SMILES | expression of Tuj1 in YJ102-treated ciNSC5 (human UCB-MSCs; 300 μM MTOB with 30 μM YJ102, 5 days) | YJ102-induced oligomerization of CtBP1 (CtBP1 [1]) | expression of Tuj1 in YJ102-treated ciNSC5 (human UCB-MSCs; 10 μM NSC95397 with 30 μM YJ102, 5 days) | overexpressed CtBP1 (flag-CtBP1) protection from degradation by pronase (DARTS) (CtBP1 [2]) | binding to CtBP1 (CtBP1 [2]) | cell proliferation (CellTiter-Glo) (UCB-MSCs [3]) | expression of Tuj1 (BM-MSC) | direct conversion from UCB-MSCs to ciNSC5 (UCB-MSCs [4]) | expression of Tuj1 (UCB-MSCs [4]) | expression of Tuj1 (UCB-MSC (Promo Cell)) | expression of Tuj1 (AD-MSC) |
| --- | --- | --- | --- | --- | --- | --- | --- | --- | --- | --- | --- |
| CSCCC(=O)C(=O)O [MTOB, 4-methylthio-2-oxobutanoate, reference compound] | reduced | inhibited | – | – | – | – | – | – | – | – | – |
| O=C1C(SCCO)=C(SCCO)C(=O)c2ccccc21 [NSC95397] | – | – | reduced | – | – | – | – | – | – | – | – |
| CCc1ccc(N(C(=O)COC(C)=O)c2nc3cc(Cl)ccc3o2)cc1 [YJ101] | – | – | – | protected | bound to CtBP1 | reduced cell proliferation in a concentration-dependent manner | increased | induced direct conversion | increased | increased | increased |
| CCc1ccc(N(C(=O)CCC(=O)OC)c2nc3cc(Cl)ccc3o2)cc1 [YJ103] | – | – | – | protected | bound to CtBP1 | reduced cell proliferation in a concentration-dependent manner | increased | induced direct conversion | increased | increased | increased |
